Data reported in paper PMC9521027 (ACS Omega, 2022).
Substitutions are numbered along the chain they refer to.

Key:
URAT1 K393R mutant [1] = target: T1, URAT1 K393R mutant (Homo sapiens, UniProt Q96S37, K393R); assay: 14C-uric acid uptake assay in transfected HEK293 cells; format: cell-based
T1 sequence (Q96S37 1-553 K393R): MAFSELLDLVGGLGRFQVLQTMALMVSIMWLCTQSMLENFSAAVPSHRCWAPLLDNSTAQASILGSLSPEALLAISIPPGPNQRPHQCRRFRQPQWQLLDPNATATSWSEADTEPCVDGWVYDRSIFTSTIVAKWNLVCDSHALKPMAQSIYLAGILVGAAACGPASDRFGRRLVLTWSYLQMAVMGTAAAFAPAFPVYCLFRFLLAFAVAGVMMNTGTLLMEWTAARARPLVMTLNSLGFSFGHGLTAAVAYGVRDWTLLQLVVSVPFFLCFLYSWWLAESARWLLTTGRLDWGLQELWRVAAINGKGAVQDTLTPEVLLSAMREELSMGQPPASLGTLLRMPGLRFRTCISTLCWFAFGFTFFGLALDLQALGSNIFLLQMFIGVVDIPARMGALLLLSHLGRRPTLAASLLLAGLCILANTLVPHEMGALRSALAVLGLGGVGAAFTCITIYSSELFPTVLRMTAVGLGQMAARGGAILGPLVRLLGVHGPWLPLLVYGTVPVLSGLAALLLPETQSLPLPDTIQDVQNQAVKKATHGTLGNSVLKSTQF

URAT1 K393H mutant [2] = target: T2, URAT1 K393H mutant (Homo sapiens, UniProt Q96S37, K393H); assay: as above; format: cell-based
T2 sequence (Q96S37 1-553 K393H): T1 sequence (Q96S37 1-553 K393R) with R393H

URAT1 K393A mutant = target: T3, URAT1 K393A mutant (Homo sapiens, UniProt Q96S37, K393A); assay: as above; format: cell-based
T3 sequence (Q96S37 1-553 K393A): T1 sequence (Q96S37 1-553 K393R) with R393A

URAT1 K393D mutant = target: T4, URAT1 K393D mutant (Homo sapiens, UniProt Q96S37, K393D); assay: as above; format: cell-based
T4 sequence (Q96S37 1-553 K393D): T1 sequence (Q96S37 1-553 K393R) with R393D

URAT1 K393E mutant = target: T5, URAT1 K393E mutant (Homo sapiens, UniProt Q96S37, K393E); assay: as above; format: cell-based
T5 sequence (Q96S37 1-553 K393E): T1 sequence (Q96S37 1-553 K393R) with R393E

URAT1 K393H mutant [3] = target: T2, URAT1 K393H mutant; assay: 14C-uric acid binding assay with membrane protein; settings: 1 μM BM, 1 μM verinurad, 10 μM lesinurad, 20 μM probenecid, 30 min, 25 μM 14C-uric acid
URAT1 K393R mutant [4] = target: T1, URAT1 K393R mutant; assay: 14C-uric acid binding assay with membrane protein; settings: 1 μM BM, 1 μM verinurad, 10 μM lesinurad, 20 μM probenecid, 30 min, 25 μM 14C-uric acid
wild-type hURAT1 = target: T6, wild-type hURAT1 (Homo sapiens, UniProt Q96S37); assay: cell-based
T6 sequence (Q96S37 1-553): T1 sequence (Q96S37 1-553 K393R) with R393K

IC50 (URAT1 K393R mutant [1]): 310 ± 290 nM
IC50 (URAT1 K393H mutant [2]): 490 ± 240 nM
IC50 (URAT1 K393A mutant): 420 ± 260 nM
IC50 (URAT1 K393D mutant): 440 ± 210 nM
IC50 (URAT1 K393E mutant): 360 ± 220 nM
Effect of inhibitor on 14C-uric acid binding compared with WT group (URAT1 K393H mutant [3]): similar
Effect of inhibitor on 14C-uric acid binding compared with WT group (URAT1 K393R mutant [4]): similar
IC50 (wild-type hURAT1): 290 ± 120 nM
Compound: CC(C)(Sc1ccncc1-c1ccc(C#N)c2ccccc12)C(=O)O [verinurad]
